From BindingDB's records for doi:10.1016/j.ejmech.2021.113986 (Yantai University, 2022)

Columns and labels:
Cytochrome P450 2C9 = Cytochrome P450 2C9 (Homo sapiens, UniProt P11712); experiment: Inhibition of CYP2C9 (unknown origin)
Cytochrome P450 2C19 = Cytochrome P450 2C19 (Homo sapiens, UniProt P33261); experiment: Inhibition of CYP2C19 (unknown origin)
[1] = biological target: Potassium voltage-gated channel subfamily H member 2 (Homo sapiens, UniProt Q12809); experiment: Inhibition of human ERG expressed in CHO cells at holding potential of -80 mV by whole cell patch clamp assay
Chain of Potassium voltage-gated channel subfamily H member 2 (Q12809 whole entry): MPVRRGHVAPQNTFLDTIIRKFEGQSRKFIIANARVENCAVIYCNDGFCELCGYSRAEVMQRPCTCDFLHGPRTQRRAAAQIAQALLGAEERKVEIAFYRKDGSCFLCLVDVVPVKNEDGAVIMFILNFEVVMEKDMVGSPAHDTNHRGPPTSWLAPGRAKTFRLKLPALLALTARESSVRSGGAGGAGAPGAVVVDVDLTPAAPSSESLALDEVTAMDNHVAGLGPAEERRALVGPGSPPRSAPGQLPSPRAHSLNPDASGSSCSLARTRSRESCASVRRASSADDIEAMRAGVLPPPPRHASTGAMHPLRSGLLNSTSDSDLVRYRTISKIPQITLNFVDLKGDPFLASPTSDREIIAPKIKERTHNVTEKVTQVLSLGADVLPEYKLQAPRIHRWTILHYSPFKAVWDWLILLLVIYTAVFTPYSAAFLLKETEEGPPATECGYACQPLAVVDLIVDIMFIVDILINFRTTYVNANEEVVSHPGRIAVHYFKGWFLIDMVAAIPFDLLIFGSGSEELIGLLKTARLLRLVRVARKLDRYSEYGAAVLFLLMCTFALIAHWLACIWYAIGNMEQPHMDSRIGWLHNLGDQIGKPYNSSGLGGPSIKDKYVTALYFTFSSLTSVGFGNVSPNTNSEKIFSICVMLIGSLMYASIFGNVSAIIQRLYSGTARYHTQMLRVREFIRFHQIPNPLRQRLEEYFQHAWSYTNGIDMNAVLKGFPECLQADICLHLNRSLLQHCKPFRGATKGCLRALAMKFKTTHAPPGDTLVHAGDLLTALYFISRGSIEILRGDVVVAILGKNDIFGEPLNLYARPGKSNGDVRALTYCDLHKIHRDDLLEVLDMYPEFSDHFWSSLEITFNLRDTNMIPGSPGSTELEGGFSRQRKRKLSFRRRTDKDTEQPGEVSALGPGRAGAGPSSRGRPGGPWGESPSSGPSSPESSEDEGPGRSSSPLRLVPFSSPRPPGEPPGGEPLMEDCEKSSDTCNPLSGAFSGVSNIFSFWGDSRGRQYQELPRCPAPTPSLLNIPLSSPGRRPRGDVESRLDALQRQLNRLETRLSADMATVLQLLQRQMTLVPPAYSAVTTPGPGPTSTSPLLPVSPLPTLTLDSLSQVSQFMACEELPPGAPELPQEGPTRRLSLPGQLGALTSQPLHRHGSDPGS

Chain of Cytochrome P450 2C9 (P11712 whole entry): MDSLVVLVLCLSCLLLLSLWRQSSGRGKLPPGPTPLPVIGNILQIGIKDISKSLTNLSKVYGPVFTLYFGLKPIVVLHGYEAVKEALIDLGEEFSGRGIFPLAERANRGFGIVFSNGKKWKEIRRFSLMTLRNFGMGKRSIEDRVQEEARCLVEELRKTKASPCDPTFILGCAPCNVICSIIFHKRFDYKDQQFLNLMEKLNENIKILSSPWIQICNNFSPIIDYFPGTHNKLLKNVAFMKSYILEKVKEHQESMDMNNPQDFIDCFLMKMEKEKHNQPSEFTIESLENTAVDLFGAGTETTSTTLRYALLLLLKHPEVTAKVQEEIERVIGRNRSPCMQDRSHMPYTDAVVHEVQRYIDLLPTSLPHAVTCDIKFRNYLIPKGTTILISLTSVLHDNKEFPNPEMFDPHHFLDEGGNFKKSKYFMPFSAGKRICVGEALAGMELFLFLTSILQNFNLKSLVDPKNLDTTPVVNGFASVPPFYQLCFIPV
Chain of Cytochrome P450 2C19 (P33261 whole entry): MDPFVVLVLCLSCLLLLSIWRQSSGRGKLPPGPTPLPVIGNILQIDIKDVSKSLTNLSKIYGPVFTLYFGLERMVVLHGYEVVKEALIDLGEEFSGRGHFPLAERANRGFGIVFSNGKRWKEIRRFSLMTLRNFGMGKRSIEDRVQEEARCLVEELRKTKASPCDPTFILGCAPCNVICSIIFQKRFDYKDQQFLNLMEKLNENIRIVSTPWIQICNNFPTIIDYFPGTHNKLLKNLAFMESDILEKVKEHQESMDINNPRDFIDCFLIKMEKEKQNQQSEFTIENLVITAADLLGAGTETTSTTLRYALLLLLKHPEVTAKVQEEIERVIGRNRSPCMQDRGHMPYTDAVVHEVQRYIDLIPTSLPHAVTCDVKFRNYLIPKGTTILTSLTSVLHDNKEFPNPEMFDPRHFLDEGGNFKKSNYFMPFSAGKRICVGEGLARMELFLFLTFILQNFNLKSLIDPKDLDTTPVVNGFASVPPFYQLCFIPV

SMILES | IC50 (Cytochrome P450 2C9) [µM] | IC50 (Cytochrome P450 2C19) [µM] | IC50 [1] [µM]
c1ccc([C@]2(CCNCc3scc4c3CCC4)CCO[C@]3(CCOC3)C2)nc1 [US11124523, Example (+)-2] | > 50 | > 50 | > 40
Fc1ccc([C@]2(CCNCc3cccc(Cl)c3)CCO[C@]3(CCOC3)C2)nc1 [US11124523, Example (+)-16] | > 50 |  | 
